Measured values reported in ChEMBL document CHEMBL1148025, “7-Substituted-melatonin and 7-substituted-1-methylmelatonin analogues: effect of substituents on potency and binding affinity” (Bioorg Med Chem, 2007).
The source made the active and inactive calls. No cut-off for these calls is given here.

Columns and labels:
[1] = molecular target: T1, Melatonin receptor type 1B (Homo sapiens, UniProt P49286); assay: Displacement of 2[125I]iodomelatonin from human recombinant MT2 receptor expressed in NIH3T3 cells; format: cell-based
T1 sequence (P49286 whole entry): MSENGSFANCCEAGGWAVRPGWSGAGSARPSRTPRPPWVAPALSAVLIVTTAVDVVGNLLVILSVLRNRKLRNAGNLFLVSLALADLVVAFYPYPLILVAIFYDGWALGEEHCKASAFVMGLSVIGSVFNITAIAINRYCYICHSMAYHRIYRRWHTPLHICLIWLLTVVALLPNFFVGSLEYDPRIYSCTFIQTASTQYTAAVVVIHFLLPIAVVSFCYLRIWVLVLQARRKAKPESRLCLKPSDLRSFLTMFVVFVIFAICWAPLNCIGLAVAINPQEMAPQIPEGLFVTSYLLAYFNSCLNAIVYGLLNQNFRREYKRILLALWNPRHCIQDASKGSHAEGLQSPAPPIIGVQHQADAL

[2] = molecular target: Melatonin receptor type 1A (Homo sapiens, UniProt P48039); assay: Displacement of 2[125I]iodomelatonin from human recombinant MT1 receptor expressed in NIH3T3 cells; format: cell-based
Melatonin receptor type 1A, sequence (P48039 whole entry): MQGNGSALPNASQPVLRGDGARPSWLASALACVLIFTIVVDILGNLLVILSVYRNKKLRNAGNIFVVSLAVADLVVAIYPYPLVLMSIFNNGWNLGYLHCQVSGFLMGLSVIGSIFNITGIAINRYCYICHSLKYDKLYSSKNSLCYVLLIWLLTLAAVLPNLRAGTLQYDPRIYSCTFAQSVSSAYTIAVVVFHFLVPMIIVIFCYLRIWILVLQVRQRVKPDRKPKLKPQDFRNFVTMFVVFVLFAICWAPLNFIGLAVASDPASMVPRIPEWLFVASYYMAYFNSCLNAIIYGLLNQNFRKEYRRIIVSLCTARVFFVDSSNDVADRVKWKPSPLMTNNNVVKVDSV

[3] = molecular target: T2, Melatonin receptor type 1C (Xenopus laevis, UniProt P49219); assay: Effect on pigment aggregation in Xenopus laevis melanophores; format: functional
T2 sequence (P49219 whole entry): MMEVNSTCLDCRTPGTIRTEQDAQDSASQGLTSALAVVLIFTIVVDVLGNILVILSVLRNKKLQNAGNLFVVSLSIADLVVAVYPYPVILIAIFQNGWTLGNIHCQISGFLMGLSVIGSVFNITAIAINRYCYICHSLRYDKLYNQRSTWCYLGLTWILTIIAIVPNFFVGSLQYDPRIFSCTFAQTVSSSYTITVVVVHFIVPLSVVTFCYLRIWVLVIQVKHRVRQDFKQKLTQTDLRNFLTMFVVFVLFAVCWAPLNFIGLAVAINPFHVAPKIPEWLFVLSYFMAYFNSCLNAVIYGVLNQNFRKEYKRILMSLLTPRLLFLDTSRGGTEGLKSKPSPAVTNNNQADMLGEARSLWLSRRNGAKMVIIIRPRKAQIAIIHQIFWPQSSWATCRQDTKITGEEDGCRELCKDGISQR

[4] = molecular target: T3, Melatonin receptor type 1C (Xenopus laevis) (UniProt P49219); assay: Effect on pigment aggregation in Xenopus laevis melanophores at 10 uM; format: functional
T3 sequence (whole entry): T2 sequence (P49219 whole entry)

| Compound | Ki [1] | Ki [2] | EC50 [3] | Activity [4] |
| --- | --- | --- | --- | --- |
| CCC(=O)NCCc1c[nH]c2c(C)cc(OC)cc12 | 1.1 nM | 1.78 nM | 31.6 nM | – |
| COc1ccc2[nH]cc(CCNC(C)=O)c2c1 [MELATONIN] | – | – | 0.0794 nM | – |
| CCCC(=O)NCCc1c[nH]c2c(Br)cc(OC)cc12 | 0.355 nM | 5.13 nM | 3.47 nM | – |
| CCC(=O)NCCc1c[nH]c2c(Br)cc(OC)cc12 | 0.537 nM | 4.17 nM | 11.5 nM | – |
| CCCC(=O)NCCc1c[nH]c2c(-c3ccccc3)cc(OC)cc12 | 871 nM | 955 nM | 45.7 nM | – |
| CCC(=O)NCCc1c[nH]c2c(-c3ccccc3)cc(OC)cc12 | 617 nM | 617 nM | 155 nM | – |
| CCCC(=O)NCCc1c[nH]c2c(C)cc(OC)cc12 | 0.676 nM | 2.88 nM | 12.6 nM | – |
| CCC(=O)NCCc1cn(C)c2c(-c3ccccc3)cc(OC)cc12 | 676 nM | 5890 nM | – | inactive |
| COc1cc(-c2ccccc2)c2[nH]cc(CCNC(C)=O)c2c1 | 3020 nM | 12900 nM | 120 nM | – |
| CCCC(=O)NCCc1cn(C)c2c(-c3ccccc3)cc(OC)cc12 | 851 nM | 5370 nM | – | inactive |

Other lines, results leading:

| Ki [1] | Ki [2] | EC50 [3] | Activity [4] | Compound |
| --- | --- | --- | --- | --- |
| 457 nM | 1260 nM | 339 nM | – | COc1cc(-c2ccccc2)c2c(c1)c(CCNC(C)=O)cn2C |
| 2.14 nM | 33.1 nM | 52.5 nM | – | CCCC(=O)NCCc1cn(C)c2c(Br)cc(OC)cc12 |
| 1.74 nM | 2.69 nM | 45.7 nM | – | COc1cc(C)c2[nH]cc(CCNC(C)=O)c2c1 |
| 1.32 nM | 10.5 nM | 24.5 nM | – | COc1cc(Br)c2c(c1)c(CCNC(C)=O)cn2C |
| 1.35 nM | 19.5 nM | 16.6 nM | – | CCCC(=O)NCCc1cn(C)c2c(C)cc(OC)cc12 |
| 2.29 nM | 14.1 nM | 64.6 nM | – | CCC(=O)NCCc1cn(C)c2c(Br)cc(OC)cc12 |
| 2.63 nM | 15.8 nM | 15.8 nM | – | CCC(=O)NCCc1cn(C)c2c(C)cc(OC)cc12 |
| 1.55 nM | 8.71 nM | 9.77 nM | – | COc1cc(C)c2c(c1)c(CCNC(C)=O)cn2C |
| 0.676 nM | 3.55 nM | 3.31 nM | – | COc1cc(Br)c2[nH]cc(CCNC(C)=O)c2c1 |
